Measurements taken from PubChem BioAssay (NCI).
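Step 1: Grow cells in 96-well plates. Step 2: Expose to compound for 48 hours at 5 concentrations. Step 3: Interpolate endpoints linearly; if unreached, use highest concentration. GI50: concentration for 50% inhibition of growth. TGI: concentration producing complete growth inhibition.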

What was measured:
Assay in all cases: DTP human tumour cell line panel, 48 h
786-0 renal = tested on: 786-0 renal
HCC-2998 colon = tested on: HCC-2998 colon
K-562 leukemia = tested on: K-562 leukemia
NCI-H23 lung = tested on: NCI-H23 lung
TK-10 renal = tested on: TK-10 renal
IGROV1 ovarian = tested on: IGROV1 ovarian
HCT-116 colon = tested on: HCT-116 colon
MOLT-4 leukemia = tested on: MOLT-4 leukemia
HT29 colon = tested on: HT29 colon
PC-3 prostate = tested on: PC-3 prostate
BT-549 breast = tested on: BT-549 breast
DU-145 prostate = tested on: DU-145 prostate
HCT-15 colon = tested on: HCT-15 colon
HOP-62 NSCLC = tested on: HOP-62 NSCLC
MCF7 breast = tested on: MCF7 breast
RPMI-8226 leukemia = tested on: RPMI-8226 leukemia
UACC-257 melanoma = tested on: UACC-257 melanoma
EKVX NSCLC = tested on: EKVX NSCLC
SK-MEL-28 melanoma = tested on: SK-MEL-28 melanoma
SF-539 CNS = tested on: SF-539 CNS
SN12C renal = tested on: SN12C renal
MDA-MB-231 breast = tested on: MDA-MB-231 breast
COLO 205 colon = tested on: COLO 205 colon
NCI-H226 lung = tested on: NCI-H226 lung
OVCAR-5 ovarian = tested on: OVCAR-5 ovarian
MDA-MB-435 = tested on: MDA-MB-435
HS 578T breast = tested on: HS 578T breast
A498 renal = tested on: A498 renal
ACHN renal = tested on: ACHN renal
NCI-H522 lung = tested on: NCI-H522 lung
SF-295 CNS = tested on: SF-295 CNS
UO-31 renal = tested on: UO-31 renal
KM12 colon = tested on: KM12 colon
OVCAR-8 ovarian = tested on: OVCAR-8 ovarian
SNB-19 CNS = tested on: SNB-19 CNS
SR leukemia = tested on: SR leukemia
SK-MEL-2 melanoma = tested on: SK-MEL-2 melanoma
U251 CNS = tested on: U251 CNS
OVCAR-3 ovarian = tested on: OVCAR-3 ovarian
RXF 393 renal = tested on: RXF 393 renal
CCRF-CEM leukemia = tested on: CCRF-CEM leukemia
HOP-92 NSCLC = tested on: HOP-92 NSCLC
HL-60(TB) leukemia = tested on: HL-60(TB) leukemia
NCI-H460 lung = tested on: NCI-H460 lung
SK-MEL-5 melanoma = tested on: SK-MEL-5 melanoma
OVCAR-4 ovarian = tested on: OVCAR-4 ovarian
UACC-62 melanoma = tested on: UACC-62 melanoma
SF-268 CNS = tested on: SF-268 CNS
CAKI-1 renal = tested on: CAKI-1 renal
M14 melanoma = tested on: M14 melanoma
LOX IMVI melanoma = tested on: LOX IMVI melanoma
NCI/ADR-RES ovarian = tested on: NCI/ADR-RES ovarian
T-47D breast = tested on: T-47D breast
SW-620 colon = tested on: SW-620 colon
A549 NSCLC = tested on: A549 NSCLC
SK-OV-3 ovarian = tested on: SK-OV-3 ovarian
SNB-75 CNS = tested on: SNB-75 CNS
MALME-3M melanoma = tested on: MALME-3M melanoma

## O=c1oc2ccccc2c2c1Sc1ccccc1N2
786-0 renal
  TGI: > 100 µM
HCC-2998 colon
  TGI: > 100 µM
K-562 leukemia
  TGI: > 100 µM
NCI-H23 lung
  TGI: > 100 µM
TK-10 renal
  TGI: > 100 µM
IGROV1 ovarian
  TGI: > 100 µM
HCT-116 colon
  TGI: > 100 µM
MOLT-4 leukemia
  TGI: > 100 µM
HT29 colon
  TGI: > 100 µM
PC-3 prostate
  TGI: > 100 µM
BT-549 breast
  TGI: > 100 µM
DU-145 prostate
  TGI: > 100 µM
HCT-15 colon
  TGI: > 100 µM
HOP-62 NSCLC
  TGI: > 100 µM
MCF7 breast
  TGI: > 100 µM
RPMI-8226 leukemia
  TGI: > 100 µM
UACC-257 melanoma
  TGI: > 100 µM
EKVX NSCLC
  TGI: > 100 µM
SK-MEL-28 melanoma
  TGI: > 100 µM
SF-539 CNS
  TGI: > 100 µM
SN12C renal
  TGI: > 100 µM
MDA-MB-231 breast
  TGI: > 100 µM
COLO 205 colon
  TGI: > 100 µM
NCI-H226 lung
  TGI: > 100 µM
OVCAR-5 ovarian
  TGI: > 100 µM
MDA-MB-435
  TGI: > 100 µM
HS 578T breast
  TGI: > 100 µM
A498 renal
  TGI: > 100 µM
ACHN renal
  TGI: > 100 µM
NCI-H522 lung
  TGI: > 100 µM
SF-295 CNS
  TGI: > 100 µM
UO-31 renal
  TGI: > 100 µM
KM12 colon
  TGI: > 100 µM
OVCAR-8 ovarian
  TGI: > 100 µM
SNB-19 CNS
  TGI: > 100 µM
SR leukemia
  TGI: > 100 µM
SK-MEL-2 melanoma
  TGI: > 100 µM
U251 CNS
  TGI: > 100 µM
OVCAR-3 ovarian
  TGI: > 100 µM
RXF 393 renal
  TGI: > 100 µM
CCRF-CEM leukemia
  TGI: > 100 µM
HOP-92 NSCLC
  TGI: > 100 µM
HL-60(TB) leukemia
  TGI: > 100 µM
NCI-H460 lung
  TGI: > 100 µM
SK-MEL-5 melanoma
  TGI: > 100 µM
OVCAR-4 ovarian
  TGI: > 100 µM
UACC-62 melanoma
  TGI: > 100 µM
SF-268 CNS
  TGI: > 100 µM
CAKI-1 renal
  TGI: > 100 µM
M14 melanoma
  TGI: > 100 µM
LOX IMVI melanoma
  TGI: > 100 µM
NCI/ADR-RES ovarian
  TGI: > 100 µM
T-47D breast
  TGI: 45.1 µM
SW-620 colon
  TGI: > 100 µM

## O=C(O)c1nc(NCc2nc3cc(Cl)ccc3o2)n[nH]1
A549 NSCLC
  GI50: > 100 µM
  TGI: > 100 µM
786-0 renal
  GI50: > 100 µM
  TGI: > 100 µM
HCC-2998 colon
  GI50: > 100 µM
  TGI: > 100 µM
K-562 leukemia
  GI50: > 100 µM
  TGI: > 100 µM
NCI-H23 lung
  GI50: > 100 µM
  TGI: > 100 µM
TK-10 renal
  GI50: > 100 µM
  TGI: > 100 µM
IGROV1 ovarian
  GI50: > 100 µM
  TGI: > 100 µM
HCT-116 colon
  GI50: > 100 µM
  TGI: > 100 µM
MOLT-4 leukemia
  GI50: > 100 µM
  TGI: > 100 µM
HT29 colon
  GI50: > 100 µM
  TGI: > 100 µM
PC-3 prostate
  GI50: > 100 µM
  TGI: > 100 µM
BT-549 breast
  GI50: > 100 µM
  TGI: > 100 µM
DU-145 prostate
  GI50: > 100 µM
  TGI: > 100 µM
HCT-15 colon
  GI50: > 100 µM
  TGI: > 100 µM
HOP-62 NSCLC
  GI50: > 100 µM
  TGI: > 100 µM
MCF7 breast
  GI50: > 100 µM
  TGI: > 100 µM
RPMI-8226 leukemia
  GI50: > 100 µM
  TGI: > 100 µM
UACC-257 melanoma
  GI50: > 100 µM
  TGI: > 100 µM
EKVX NSCLC
  GI50: > 100 µM
  TGI: > 100 µM
SK-MEL-28 melanoma
  GI50: > 100 µM
  TGI: > 100 µM
SF-539 CNS
  GI50: > 100 µM
  TGI: > 100 µM
SN12C renal
  GI50: > 100 µM
  TGI: > 100 µM
MDA-MB-231 breast
  GI50: > 100 µM
  TGI: > 100 µM
COLO 205 colon
  GI50: > 100 µM
  TGI: > 100 µM
NCI-H226 lung
  GI50: > 100 µM
  TGI: > 100 µM
OVCAR-5 ovarian
  GI50: > 100 µM
  TGI: > 100 µM
MDA-MB-435
  GI50: > 100 µM
  TGI: > 100 µM
HS 578T breast
  GI50: > 100 µM
  TGI: > 100 µM
A498 renal
  GI50: > 100 µM
  TGI: > 100 µM
ACHN renal
  GI50: > 100 µM
  TGI: > 100 µM
NCI-H522 lung
  GI50: > 100 µM
  TGI: > 100 µM
SF-295 CNS
  GI50: > 100 µM
  TGI: > 100 µM
UO-31 renal
  GI50: > 100 µM
  TGI: > 100 µM
KM12 colon
  GI50: > 100 µM
  TGI: > 100 µM
OVCAR-8 ovarian
  GI50: > 100 µM
  TGI: > 100 µM
SNB-19 CNS
  GI50: > 100 µM
  TGI: > 100 µM
SK-OV-3 ovarian
  GI50: > 100 µM
  TGI: > 100 µM
SR leukemia
  GI50: > 100 µM
  TGI: > 100 µM
SK-MEL-2 melanoma
  GI50: > 100 µM
  TGI: > 100 µM
U251 CNS
  GI50: > 100 µM
  TGI: > 100 µM
SNB-75 CNS
  GI50: > 100 µM
  TGI: > 100 µM
OVCAR-3 ovarian
  GI50: > 100 µM
  TGI: > 100 µM
RXF 393 renal
  GI50: > 100 µM
  TGI: > 100 µM
CCRF-CEM leukemia
  GI50: > 100 µM
  TGI: > 100 µM
HL-60(TB) leukemia
  GI50: > 100 µM
  TGI: > 100 µM
NCI-H460 lung
  GI50: > 100 µM
  TGI: > 100 µM
SK-MEL-5 melanoma
  GI50: > 100 µM
  TGI: > 100 µM
MALME-3M melanoma
  GI50: > 100 µM
  TGI: > 100 µM
OVCAR-4 ovarian
  GI50: > 100 µM
  TGI: > 100 µM
UACC-62 melanoma
  GI50: > 100 µM
  TGI: > 100 µM
SF-268 CNS
  GI50: > 100 µM
  TGI: > 100 µM
CAKI-1 renal
  GI50: > 100 µM
  TGI: > 100 µM
M14 melanoma
  GI50: > 100 µM
  TGI: > 100 µM
LOX IMVI melanoma
  GI50: > 100 µM
  TGI: > 100 µM
NCI/ADR-RES ovarian
  GI50: > 100 µM
  TGI: > 100 µM
T-47D breast
  GI50: > 100 µM
  TGI: > 100 µM
SW-620 colon
  GI50: > 100 µM
  TGI: > 100 µM
